Data taken from patent US20210317090A1, “AMINO ACID DEPLETION AGENTS AS ANTIPROLIFERATIVE AGENTS” (University of Central Florida Research Foundation, Inc., priority 2018, published 2021).
Read-outs that look alike come from different tables or passages of the source.

Experiments:
CHO-MG cells [1] = test: Cytotoxicity IC50 (MTS) in polyamine-transport-deficient CHO-MG cells; assay type: cell-based, Chinese hamster; settings: Cricetulus griseus, 48 h
Procedure: Regarding the biological studies performed in the following examples, it is noted that CHO K1, CHO-MG, and L3.6pl cells were grown in RPMI 1640 medium supplemented with 10% fetal bovine serum (FBS) and 1% penicillin/streptomycin. All cells were grown at 37° C. under a humidified 5% CO2 atmosphere. Aminoguanidine (1 mM used for CHO K1 and CHOMG cells and 250 μM for L3.6pl) was added to the growth medium to prevent oxidation of the compounds of the bovine serum amine oxidase enzyme that is present in calf serum. The cells used were in early to mid log phase and CHO and CHOMG were plated out at 1000 cells/well, whereas the L3.6pl cells were plated at 500 cells/well in a 96 well plate format.
This example illustrates aspects according to various embodiments pertaining to IC50 determinations and cell viability studies. Cell growth was assayed in sterile 96-well microtiter plates (Costar 3599, Corning, N.Y.). CHO K1 or CHOMG cells were plated at 1,000 cells/70 μL and L3.6pl cells at 500 cells/70 μL. […] After drug exposure (e.g., for 48 h for CHO K1 and CHO-MG and 48 h or 72 h for L3.6pl), cell growth was determined by measuring formazan formation from the 3-(4,5dimethylthiazol-2-yl)-5-(3-carboxymethoxyphenyl)-2-(4-sulfenyl)-2H tetrazolium, inner salt (MTS) using SynergyMx Biotek microplate reader for absorbance (490 nm) measurements.^27 All experiments were run in triplicate.

CHO K1 cells = test: cells; assay type: cell-based, Chinese hamster; settings: for EC50: Cricetulus griseus, Ant-44 0.5 μM
Procedure: Various embodiments involve the concept that a non-toxic PTI agent would inhibit the uptake of the cytotoxic polyamine conjugate Ant-44 (11) and rescue cells from Ant-44 induced toxicity. For example, using the IC50 dose of Ant-44, PTIs could be identified by measuring a compound's ability to block Ant-44 entry and rescue cells back to >90% viability. […] This toxic dose of Ant-44 was kept constant throughout the assay, while the candidate PTI compound was added in increasing concentrations up to its MTD.
Compounds (9 and 10) were tested at 5 μM and 7 μM. CHO K1 cells were treated in a 96-well plate with a toxic dose of Ant-44 (2.4 μM) alone and dosed with the candidate compounds (at 5 μM and 7 μM) and incubated for 48 h at 37° C.
To further explore this effect, development of various embodiments included modifying an original screen to use a lower dose of Ant-44 (0.5 μM) to improve the dose range of 9 and 10 that could be tested. In this regard, Ant-44 was dosed at 0.5 μM alone and in combination with increasing doses of compounds 9 (1666.177) and 10 (1666.255) and the CHO K1 cells were incubated for 48 h at 37° C., and the results are shown in FIG. 5. The red line represents the % cell viability of the Ant-44 only control. The Ant44 potentiation assay EC50 value is defined as the concentration of the candidate compound required to decrease the cell viability to half that of the Ant-44 only control. Both compounds 9 and 10 were effective at decreasing cell viability, when used in combination with Ant-44 in a dose dependent fashion.
FIG. 5 is an example according to various embodiments, illustrating potentiation of Ant-44 toxicity by compounds 9 and 10 in CHO K1 cells. Cells were incubated for 48 h at 37° C. with the respective compound and a fixed concentration of cytotoxic Ant-44 (0.5 μM). A 1 mM AG solution was incubated with the CHO K1 cells for 24 h prior to the addition of candidate compound. This was necessary to protect Ant-44 from the amine oxidases present in the media containing fetal bovine serum. […] Both compounds are nontoxic at the highest concentration tested (5 μM).

L3.6pl cells = test: Rescue by exogenous native polyamines in L3.6pl cells; assay type: cell-based, human; settings: 72 h, polyamine 1 μM or 5 μM, compound 10 at toxic dose (5 μM or higher)
Procedure: The question remained as to whether exogenous polyamines could enter and ‘rescue’ the cells back to the growth rate of untreated control. A series of experiments were conducted to determine if cells treated with compound 10 could be rescued by exogenous polyamines. To test this hypothesis, L3.6pl cells were incubated for 72 h with an increasing dose of compound 10 and a dose of one of the native polyamines (putrescine, spermidine, or spermine either at a fixed dose of 1 μM or 5 μM).
FIG. 10A is an example according to various embodiments, illustrating the inability of native polyamine putrescine (Put at 1 μM and 5 μM) to rescue L3.6pl cells treated with compound 10 (e.g., from 2-15 μM). FIG. 10B is an example according to various embodiments, illustrating inability of native polyamine spermidine (Spd at 1 μM and 5 μM) to rescue L3.6pl cells treated with compound 10 (e.g., from 2-15 μM). FIG. 10C is an example according to various embodiments, illustrating inability of the native polyamine spermine (Spm at 1 μM and 5 μM) to rescue L3.6pl cells treated with compound 10 (2-15 μM). The L3.6pl cells were incubated with 250 μM aminoguanidine (AG) for 24 h prior to the addition of compound 10, followed by 72 h incubation at 37° C. […]

CHO-MG cells [2] = test: Rescue by exogenous native polyamines in CHO-MG cells; assay type: cell-based, Chinese hamster; settings: toxic concentration of compound 10 (results not shown)

SMILES: CC(C)CCN1CCN(C(CNCc2ccccc2)CC2CCCCC2)CC1CC(C)C.Cl.Cl.Cl (stereo not drawn) [Compound 10, Benzyl-{3-cyclohexyl-2-[3-isobutyl-4-(3-methyl-butyl)-piperazin-1-yl]-propyl}-amine trihydrochloride salt]
- IC50 (CHO-MG cells [1]): 8930 ± 750 nM
- times more effective at potentiating Ant-44 than compound 9 (CHO K1 cells; CHO K1 cells): approximately 12.5 times
- EC50 (CHO K1 cells; CHO K1 cells, 48 h (FIG. 5), read-out: Ant-44 potentiation EC50): 60 nM
- EC50 (CHO K1 cells; CHO cells, 48 h, read-out: Ant44 potentiation assay EC50): 60 nM
- rescue of treated cells by putrescine, spermidine or spermine (L3.6pl cells): none of the three native polyamines (at 1 μM or 5 μM) were able to rescue
- rescue of treated cells by native polyamines (CHO-MG cells [2]): unable to rescue
